The record followed here is patent US6517871B1, “Bioenhanced formulations comprising eprosartan in oral solid dosage form” (SmithKline Beecham Corporation, priority 1998, dated 2003).

Series [1] can be described thus: clinical. The settings on record: human, in vivo. The text has this: Eprosartan is an amphiphilic molecule containing two acidic (allylic carboxylic acid and phenylic carboxylic acid) and one basic (imidazole) functional groups. At lower pH (below 2) the imidazole nitrogen will be protonated (form ii). As the pH increases, the allylic carboxylic group will be deprotonated (form iii). […] As the pH increases further, the phenylic carboxylic group will be depronated (form iv) followed by the deprotonation of the protonated imidazole group (form v). […] According to the pH-partitioning theory of absorption, only the unionized species (form ii) or the ion-neutral species (form iii) will be absorbed by passive diffusion. […] The time to maximum concentration is between 1 to 2.5 hours in fasted state and 2.5-4 hours in fed state. […] Additionally, since the commercial form of the drug is as its mesylate, which becomes dihydrated during the formulation process, high dose tablets (e.g., 600 mg tablets weigh 1,200.0 mg) may be difficult to swallow.

The nature of series [2]: pH-solubility profiles (FIG. 2). The settings on record: pH >4.0 to 5.5, where the enteric coat starts to release. Format: physicochemical.

Where a name gives a salt, the structure may show the parent alone.

Regarding `CCCCc1ncc(/C=C(\Cc2cccs2)C(=O)O)n1Cc1ccc(C(=O)O)cc1` [eprosartan mesylate, (E)-α-[2-n-Butyl-1-[(4-carboxyphenyl)methyl]-1H-imidazol-5-yl]methylene-2-thiophenepropionic acid monomethanesulfonate], the bioavailability in series [1] was around 13%.

Turning to `CCCCc1ncc(/C=C(\Cc2cccs2)C(=O)O)n1Cc1ccc(C(=O)O)cc1` [eprosartan, (E)-α-[2-n-butyl-1-[(4-carboxyphenyl)methyl]-1H-imidazol-5-yl]methylene-2-thiophenepropionic acid], in series [2], the “drug solubility at initiation pHs” value is “negligible”. Further, in series [1], the mean absolute bioavailability entry was “approximately 13%” and the “time to maximum concentration” value fell in the range of 1 to 2.5 h.

A word on the bioavailability: it is dose-corrected exposure relative to a reference, in per cent. Read a high bioavailability as much systemic uptake.
